# In publication PMC10013835 (Proceedings of the National Academy of Sciences of the …, 2023):
# Substitutions are numbered along the chain they refer to. Read-outs that look alike come from different tables or passages of the source.
# Columns and labels:
# [1] = target: T1, PXR (Homo sapiens, UniProt O75469); type: cell-based; conditions: WT PXR-transfected 293T cells, 24 h, Fig. 5
# T1 sequence (O75469 1-434): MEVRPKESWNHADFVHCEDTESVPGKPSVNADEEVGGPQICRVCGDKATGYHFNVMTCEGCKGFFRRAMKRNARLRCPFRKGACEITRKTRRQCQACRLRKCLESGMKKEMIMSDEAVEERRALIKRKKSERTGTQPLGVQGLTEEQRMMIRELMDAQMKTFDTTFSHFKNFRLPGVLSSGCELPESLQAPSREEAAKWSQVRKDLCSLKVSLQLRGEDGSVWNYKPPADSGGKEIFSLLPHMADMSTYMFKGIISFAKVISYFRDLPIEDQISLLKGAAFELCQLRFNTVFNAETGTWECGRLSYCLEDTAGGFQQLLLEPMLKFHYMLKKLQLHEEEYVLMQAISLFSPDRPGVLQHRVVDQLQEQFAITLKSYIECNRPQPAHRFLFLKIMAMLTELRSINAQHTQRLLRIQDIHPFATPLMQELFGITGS
# [2] = target: T2, PXR LBD (Homo sapiens, UniProt O75469); test: biochemical; conditions: PXR LBD binding [IC50 ± SD (µM)]
# T2 sequence (O75469 146-433 limits assumed): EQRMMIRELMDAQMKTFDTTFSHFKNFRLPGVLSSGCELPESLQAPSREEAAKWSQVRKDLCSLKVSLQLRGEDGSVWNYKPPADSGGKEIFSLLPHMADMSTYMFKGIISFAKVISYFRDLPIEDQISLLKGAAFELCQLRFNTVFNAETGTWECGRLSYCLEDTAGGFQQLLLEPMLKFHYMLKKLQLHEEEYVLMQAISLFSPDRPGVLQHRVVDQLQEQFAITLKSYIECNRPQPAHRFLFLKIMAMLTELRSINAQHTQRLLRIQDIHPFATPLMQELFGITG
# [3] = target: T2, PXR LBD
# [4] = target: T3, W299A mutant PXR (Homo sapiens, UniProt O75469, W299A); conditions: 293T cells, 24 h, Fig. 6
# T3 sequence (O75469 1-434 W299A): T1 sequence (O75469 1-434) with W299A
SMILES,"cellular PXR activity (luciferase reporter), in words [1]",IC50 [2],"Group (PXR LBD binding affinity group) ([3]; human, pH 7.5)","IC50 ([2]; TR-FRET, GST-PXR LBD, rifampicin analog series)","FC, fold change, compound's IC50 divided by that of rifampicin ([3]; PXR LBD binding, relative to rifampicin)",Group (PXR LBD binding affinity group) ([3]; grouping relative to rifampicin affinity),"reporter activity for W299A PXR versus WT, in words [4]"
CO[C@H]1/C=C/O[C@@]2(C)Oc3c(C)c(O)c4c(O)c(cc(O)c4c3C2=O)NC(=O)/C(C)=C\C=C\[C@H](C)[C@H](O)[C@@H](C)[C@@H](O)[C@@H](C)[C@H](OC(C)=O)[C@@H]1C [Rifamycin],marginally better than rifampicin,0.067 ± 0.009 µM,2,–,–,–,–
CO[C@H]1/C=C/O[C@@]2(C)Oc3c(C)c(O)c4c(O)c(c5c(nc6cc(C)ccn65)c4c3C2=O)NC(=O)/C(C)=C\C=C\[C@H](C)[C@H](O)[C@@H](C)[C@@H](O)[C@@H](C)[C@H](OC(C)=O)[C@@H]1C [Rifaximin],–,–,–,11.4 ± 3.3 µM,4.2,1,–
CO[C@H]1/C=C/O[C@@]2(C)Oc3c(C)c(O)c4c(c3C2=O)C(=O)C=C(NC(=O)/C(C)=C\C=C\[C@H](C)[C@H](O)[C@@H](C)[C@@H](O)[C@@H](C)[C@H](OC(C)=O)[C@@H]1C)C4=O [Rifamycin S],marginally better than rifampicin,0.054 ± 0.014 µM,2,–,–,–,nearly completely inactive
CO[C@H]1/C=C/O[C@@]2(C)Oc3c(C)c(O)c4c(c3C2=O)C2=NC3(CCN(CC(C)C)CC3)NC2=C(NC(=O)/C(C)=C\C=C\[C@H](C)[C@H](O)[C@@H](C)[C@@H](O)[C@@H](C)[C@H](OC(C)=O)[C@@H]1C)C4=O [Rifabutin],–,11.8 ± 4.4 µM,1,–,–,–,changed very little
